According to PubChem BioAssay (NCI):
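1) Cells in 96-well plates. 2) Compound, 48 h, 5 concentrations. 3) Linear interpolation between surrounding doses. 4) Unreached endpoint = highest concentration. GI50: concentration for 50% inhibition of growth. TGI is the concentration that stops growth completely.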

Columns and labels:
Test in all cases: growth of human tumour cells (NCI), 48 h
U251 CNS = system: U251 CNS
HCC-2998 colon = system: HCC-2998 colon
CCRF-CEM leukemia = system: CCRF-CEM leukemia
SN12C renal = system: SN12C renal
SNB-75 CNS = system: SNB-75 CNS
MCF7 breast = system: MCF7 breast
HCT-15 colon = system: HCT-15 colon
RPMI-8226 leukemia = system: RPMI-8226 leukemia
K-562 leukemia = system: K-562 leukemia
786-0 renal = system: 786-0 renal
MOLT-4 leukemia = system: MOLT-4 leukemia
KM12 colon = system: KM12 colon
SK-MEL-28 melanoma = system: SK-MEL-28 melanoma
UO-31 renal = system: UO-31 renal
NCI-H522 lung = system: NCI-H522 lung
M14 melanoma = system: M14 melanoma
COLO 205 colon = system: COLO 205 colon
HOP-92 NSCLC = system: HOP-92 NSCLC
NCI/ADR-RES ovarian = system: NCI/ADR-RES ovarian
OVCAR-5 ovarian = system: OVCAR-5 ovarian
HS 578T breast = system: HS 578T breast
IGROV1 ovarian = system: IGROV1 ovarian
NCI-H23 lung = system: NCI-H23 lung
PC-3 prostate = system: PC-3 prostate
SF-539 CNS = system: SF-539 CNS
SNB-19 CNS = system: SNB-19 CNS
OVCAR-3 ovarian = system: OVCAR-3 ovarian
OVCAR-8 ovarian = system: OVCAR-8 ovarian
A498 renal = system: A498 renal
HL-60(TB) leukemia = system: HL-60(TB) leukemia
SW-620 colon = system: SW-620 colon
SK-OV-3 ovarian = system: SK-OV-3 ovarian
RXF 393 renal = system: RXF 393 renal
SF-295 CNS = system: SF-295 CNS
ACHN renal = system: ACHN renal
SK-MEL-5 melanoma = system: SK-MEL-5 melanoma
HT29 colon = system: HT29 colon
HOP-62 NSCLC = system: HOP-62 NSCLC
NCI-H460 lung = system: NCI-H460 lung
DU-145 prostate = system: DU-145 prostate
BT-549 breast = system: BT-549 breast
MDA-MB-435 = system: MDA-MB-435
A549 NSCLC = system: A549 NSCLC
TK-10 renal = system: TK-10 renal
CAKI-1 renal = system: CAKI-1 renal
T-47D breast = system: T-47D breast
SR leukemia = system: SR leukemia
MDA-MB-231 breast = system: MDA-MB-231 breast
UACC-257 melanoma = system: UACC-257 melanoma
UACC-62 melanoma = system: UACC-62 melanoma
OVCAR-4 ovarian = system: OVCAR-4 ovarian
SK-MEL-2 melanoma = system: SK-MEL-2 melanoma
NCI-H226 lung = system: NCI-H226 lung
HCT-116 colon = system: HCT-116 colon
SF-268 CNS = system: SF-268 CNS
EKVX NSCLC = system: EKVX NSCLC

`C=C(C)C1CC/C(C)=C/CC[C@]2(C)O[C@H]2CC/C(COC(C)=O)=C\[C@@H]1O` (some centres undefined) was tested, and the TGI (U251 CNS) was > 50 µM, the TGI (HCC-2998 colon) was > 50 µM and the TGI (CCRF-CEM leukemia) was > 50 µM. The TGI (SN12C renal) was > 50 µM, the GI50 (SNB-75 CNS) was 0.625 µM and the TGI (SNB-75 CNS) was 15.2 µM. For the same compound, the TGI (MCF7 breast) was > 50 µM, the TGI (HCT-15 colon) was > 50 µM and the TGI (RPMI-8226 leukemia) was > 50 µM. For the same compound, the TGI (K-562 leukemia) was > 50 µM, the TGI (786-0 renal) was > 50 µM and the TGI (MOLT-4 leukemia) was > 50 µM. The TGI (KM12 colon) was > 50 µM, the TGI (SK-MEL-28 melanoma) was > 50 µM and the TGI (UO-31 renal) was > 50 µM. The TGI (NCI-H522 lung) was > 50 µM, the GI50 (M14 melanoma) was 8.28 µM and the TGI (M14 melanoma) was > 50 µM. The TGI (COLO 205 colon) was > 50 µM, the TGI (HOP-92 NSCLC) was > 50 µM and the TGI (NCI/ADR-RES ovarian) was > 50 µM. For the same compound, the TGI (OVCAR-5 ovarian) was > 50 µM, the GI50 (HS 578T breast) was 8.27 µM and the TGI (HS 578T breast) was > 50 µM. For the same compound, the TGI (IGROV1 ovarian) was > 50 µM, the TGI (NCI-H23 lung) was > 50 µM and the TGI (PC-3 prostate) was > 50 µM. For the same compound, the TGI (SF-539 CNS) was > 50 µM, the TGI (SNB-19 CNS) was > 50 µM and the TGI (OVCAR-3 ovarian) was > 50 µM. The TGI (OVCAR-8 ovarian) was > 50 µM, the TGI (A498 renal) was > 50 µM and the TGI (HL-60(TB) leukemia) was > 50 µM. The TGI (SW-620 colon) was > 50 µM, the TGI (SK-OV-3 ovarian) was > 50 µM and the TGI (RXF 393 renal) was > 50 µM. For the same compound, the TGI (SF-295 CNS) was > 50 µM, the TGI (ACHN renal) was > 50 µM and the TGI (SK-MEL-5 melanoma) was > 50 µM. The TGI (HT29 colon) was > 50 µM, the TGI (HOP-62 NSCLC) was > 50 µM and the TGI (NCI-H460 lung) was > 50 µM. The TGI (DU-145 prostate) was > 50 µM, the TGI (BT-549 breast) was > 50 µM and the TGI (MDA-MB-435) was > 50 µM. The TGI (A549 NSCLC) was > 50 µM, the TGI (TK-10 renal) was > 50 µM and the TGI (CAKI-1 renal) was > 50 µM. For the same compound, the TGI (T-47D breast) was > 50 µM, the TGI (SR leukemia) was > 50 µM and the TGI (MDA-MB-231 breast) was > 50 µM. The TGI (UACC-257 melanoma) was > 50 µM, the TGI (UACC-62 melanoma) was > 50 µM and the TGI (OVCAR-4 ovarian) was > 50 µM. For the same compound, the TGI (SK-MEL-2 melanoma) was > 50 µM, the TGI (NCI-H226 lung) was > 50 µM and the TGI (HCT-116 colon) was > 50 µM. For the same compound, the TGI (SF-268 CNS) was > 50 µM and the TGI (EKVX NSCLC) was > 50 µM.
